The target in one assay is T1, SGK3 (Homo sapiens, UniProt Q96BR1).
T1 construct: purchased DiscoveRx (Fremont, CA)
The assay is described as follows: KinomeScan. The format is binding. The settings on record: read-out: % Control.

A further assay concerns the target T2, CAMK2G (Homo sapiens, UniProt Q13555).
T2 construct: purchased DiscoveRx (KinomeScan service)
Nature of the assay: KinomeScan. The class given is binding. The conditions noted are these: read-out: % Control.

The target in a further assay is T3, AAK1 (Homo sapiens, UniProt Q2M2I8).
T3 construct: purchased DiscoveRx
Nature of the assay: KinomeScan. The format is binding. The conditions noted are these: read-out: % Control.

The target of a further assay is T4, CDK11 (Homo sapiens, UniProt Q9BWU1).
T4 construct: purchased DiscoveRx (KinomeScan service)
Nature of the assay: KinomeScan. The class given is binding. The settings on record: read-out: % Control.

The target in the next assay is T5, PRKR (Homo sapiens, UniProt P19525).
T5 construct: purchased DiscoveRx (Fremont, CA)
The assay is described as follows: KinomeScan. The conditions noted are these: read-out: % Control. The format is binding.

The target in the next assay is T6, NIM1 (Homo sapiens, UniProt Q8IY84).
T6 construct: purchased DiscoveRx
Nature of the assay: KinomeScan. The settings on record: read-out: % Control. The class given is binding.

A further assay has as its target CSNK1D (Homo sapiens, UniProt P48730). Nature of the assay: KinomeScan. The class given is binding. The settings on record: read-out: % Control.
The target in assay [1] is T7, ABL1(F317I)-phosphorylated (Homo sapiens, UniProt P00519, F317I).
T7 construct: purchased DiscoveRx
Nature of the assay: KinomeScan. The format is binding. The settings on record: read-out: % Control.

For another assay, the target named is T8, AT1 (Homo sapiens, UniProt P30556).
T8 construct: host or cells: Chem-1 cells with promiscuous Gα15
The assay is described as follows: GPCR Profiler. The class given is cell-based.

A further assay has as its target T9, PAK7 (Homo sapiens, UniProt Q9P286).
T9 construct: purchased DiscoveRx
Nature of the assay: KinomeScan. The class given is binding. The settings on record: read-out: % Control.

Another assay has as its target T10, ULK3 (Homo sapiens, UniProt Q6PHR2).
T10 construct: purchased DiscoveRx
Nature of the assay: KinomeScan. The format is binding. The conditions noted are these: read-out: % Control.

Another assay has as its target T11, ADRB1 (Homo sapiens, UniProt P08588).
T11 construct: host or cells: Chem-1 cells with promiscuous Gα15
Nature of the assay: GPCR Profiler. The class given is cell-based.

Another assay addresses T12, MST1R (Homo sapiens, UniProt Q04912).
T12 construct: purchased DiscoveRx
Nature of the assay: KinomeScan. The class given is binding. The conditions noted are these: read-out: % Control.

For the next assay, the target named is T13, ITK (Homo sapiens, UniProt Q08881).
T13 construct: purchased DiscoveRx (Fremont, CA)
Nature of the assay: KinomeScan. The class given is binding. The conditions noted are these: read-out: % Control.

The next assay addresses T14, PRKD3 (Homo sapiens, UniProt O94806).
T14 construct: purchased DiscoveRx (Fremont, CA)
Nature of the assay: KinomeScan. The settings on record: read-out: % Control. The class given is binding.

The test system of a further assay is NCI-H460. The assay is described as follows: Cell Titer-Glo viability, Lung cancer, Large cell. The class given is cell-based. The procedure: OGM2 kills wide variety of cancer cell types. Cell sensitivity can be classified in to Very Sensitive (LC50<2 μM), Sensitive (LC50=2 to 10 μM), Mildly Sensitive (LC50>10 μM), and Refractory (no killing at 10 μM). The listed established cell were incubated with OGM2 at 2 μM or 10 μM for 72 hours under standard cell culture conditions, and relative cell number was assessed using Cell Titer-Glo Luminescent Cell Viability Assay (Promega™) following the manufacturer's instructions. Luminescence was determined using a Cytation 5 reader and Gen5 software package (BioTek™).
Cancer cells, which are very sensitive to killing by OGM2 (LCs <2 μM), with reported mRNA expression of GPR68 and the related proton sensing receptor GPR4. LC50's (concentrations causing 50% lethality) were determined using CellTiter-Glo (Promega™, G7570). Cells were plated in 12-well plates (CELLTREAT Scientific Products, 229112) in 1 ml of DMEM with high glucose, GlutaMAX, HEPES, or RPMI 1640 with Penicillin-Streptomycin (ThermoFisher™, 10564029, 11875119 and 15140122) and 10% FBS. Cells were incubated overnight at 37° C. in 5% CO2. Then 1 mL of fresh media was added with DMSO, OGM, or positive control (Erastin; APExBIO Technology, LLC, B1524) and cells incubated for 3 days. On the third day, all media was removed, cells were rinsed with 1×PBS, PBS was removed, and 200 μL of 1× Passive Lysis Buffer (Promega™, E1941) was added to each well. […]. Subsequently, 20 μL of lysate was added to 100 μL CellTiter-Glo™ reagent on a LUMITRAC 200 plate (Greiner™ bio-one, 82050-726). Plates were briefly spun down and read on a GloMax-Multi Detection System (Promega™).
The cells listed in the tables above were incubated with OGM2 at 2 μM or 10 μM for 72 hours under standard cell culture conditions, and relative cell number was assessed using Cell Titer-Glo Luminescent Cell Viability Assay (Promega™) following the manufacturer's instructions. Luminescence was determined using a Cytation 5 reader and Gen5 software package (BioTek™). RNA expression of GPR68 and GPR4 in the corresponding cancer cell lines are listed, according to the publicly available The Human Protein Atlas version 22.0 and Ensembl version 103.38 (see proteinatlas.org). The consensus normalized expression value (“nTPM”=normalize transcript per million) was calculated as the maximum nTPM value for each gene in the two data sources.
A general note: Cellular ATP, detected with luciferase, serves as a proxy for viable cell number.

The subject of the next assay is Panc02. The assay is described as follows: Cell cycle analysis (propidium iodide flow cytometry). The class given is cell-based, mouse. The conditions noted are these: 3 Gy radiation in combination with OGM. The procedure: Where appropriate, ANOVA, or student's T-test were conducted in PRISM. Chi squared T(X) was used for Liperfluo analysis. A value T(X)>4 implies that the two distributions are different with a p<0.01 (99% confidence). For drug interaction and therapeutic interaction, the coefficient of drug interaction (CDI) was calculated as follows: CDI=AB/(A×B). According to the impact of each group, AB is the value of combined treatment and A or B is the value of the single agent group to control group.
Both radiation and ferroptosis are known to induce G2/M arrest. Therefore, cells were treated with OGM2 and/or 3 Gy radiation. Media was then replaced, and cells were maintained for 24 hours. Cells were then trypsinized, pelleted, and fixed overnight in 70% Methanol at 4° C. Samples were then washed twice with cold PBS before being incubated with 10 mg/ml RNase A and 500 μg/ml propidium iodide in PBS in the dark for 30 minutes at room temperature. Cell cycle progression was determined by Flow cytometry using a LSR II from BD. FIG. 96A presents a cell cycle analysis of OGM2 treatment and irradiated Panc02 cells.
(In flow cytometry, cells or beads pass a laser one at a time.)

A further assay relates to U87. The assay is described as follows: Clonogenicity (crystal violet). The format is cell-based, human. The conditions noted are these: 12 days. The protocol: U87 cells were plated at 400 cells per well in a 6-well plate and on the next day were treated with increasing concentrations of OGM2 for 12 days. The doses were 0 uM (DMSO control) 0.1 μM 0.5 uM, 1 uM, 1.5 uM and 2 uM, as labelled. The plate was fixed with formalin and stained with crystal violet.

Here are results for 2 molecules from patent US20240327364A1, “THERAPEUTIC TARGETING OF GPR68 TO INDUCE FERROPTOSIS” (University Of Maryland, Baltimore, priority 2023, published 2024).

T8 sequence (P30556 whole entry): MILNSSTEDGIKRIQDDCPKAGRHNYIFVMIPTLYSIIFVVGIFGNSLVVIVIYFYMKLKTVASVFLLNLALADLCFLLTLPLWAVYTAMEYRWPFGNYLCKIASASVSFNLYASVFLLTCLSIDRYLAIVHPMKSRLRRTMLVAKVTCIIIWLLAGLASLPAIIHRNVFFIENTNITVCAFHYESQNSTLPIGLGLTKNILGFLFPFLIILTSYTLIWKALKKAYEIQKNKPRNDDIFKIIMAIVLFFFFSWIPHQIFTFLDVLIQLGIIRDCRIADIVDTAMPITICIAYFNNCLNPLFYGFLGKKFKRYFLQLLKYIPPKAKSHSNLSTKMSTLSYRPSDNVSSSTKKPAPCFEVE
T11 sequence (P08588 whole entry, species assumed): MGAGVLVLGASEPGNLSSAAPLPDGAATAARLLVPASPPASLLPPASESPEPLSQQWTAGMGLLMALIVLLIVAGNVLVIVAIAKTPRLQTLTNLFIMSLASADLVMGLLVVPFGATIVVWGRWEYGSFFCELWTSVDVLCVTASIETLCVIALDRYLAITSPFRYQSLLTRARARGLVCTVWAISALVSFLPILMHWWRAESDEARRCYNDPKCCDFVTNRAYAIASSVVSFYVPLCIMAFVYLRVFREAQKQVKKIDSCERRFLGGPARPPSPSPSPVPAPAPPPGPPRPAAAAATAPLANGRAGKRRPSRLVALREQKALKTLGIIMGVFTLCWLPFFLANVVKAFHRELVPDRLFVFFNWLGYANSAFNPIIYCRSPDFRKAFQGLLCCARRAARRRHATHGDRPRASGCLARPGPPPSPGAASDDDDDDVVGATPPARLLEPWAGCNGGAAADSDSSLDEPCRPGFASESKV
T7 sequence (P00519 242-493 F317I limits assumed): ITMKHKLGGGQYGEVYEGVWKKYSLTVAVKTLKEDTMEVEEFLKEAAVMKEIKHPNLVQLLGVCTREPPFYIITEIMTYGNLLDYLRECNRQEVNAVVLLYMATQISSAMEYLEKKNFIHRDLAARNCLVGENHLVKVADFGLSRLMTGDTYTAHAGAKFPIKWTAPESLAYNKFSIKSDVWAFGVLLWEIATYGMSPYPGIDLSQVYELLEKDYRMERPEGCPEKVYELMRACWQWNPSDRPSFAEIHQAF
Chain of CSNK1D (P48730 whole entry): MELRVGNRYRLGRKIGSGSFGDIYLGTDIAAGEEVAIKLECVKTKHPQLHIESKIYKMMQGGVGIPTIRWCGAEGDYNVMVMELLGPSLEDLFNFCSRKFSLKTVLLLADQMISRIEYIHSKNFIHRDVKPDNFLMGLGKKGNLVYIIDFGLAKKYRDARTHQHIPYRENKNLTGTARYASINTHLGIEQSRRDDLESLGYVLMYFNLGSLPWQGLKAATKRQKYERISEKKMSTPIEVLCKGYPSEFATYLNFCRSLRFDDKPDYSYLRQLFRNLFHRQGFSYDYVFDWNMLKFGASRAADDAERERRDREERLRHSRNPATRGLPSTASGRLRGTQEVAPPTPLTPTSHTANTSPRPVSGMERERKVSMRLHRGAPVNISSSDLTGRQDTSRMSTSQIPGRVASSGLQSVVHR
T12 sequence (Q04912 25-1400): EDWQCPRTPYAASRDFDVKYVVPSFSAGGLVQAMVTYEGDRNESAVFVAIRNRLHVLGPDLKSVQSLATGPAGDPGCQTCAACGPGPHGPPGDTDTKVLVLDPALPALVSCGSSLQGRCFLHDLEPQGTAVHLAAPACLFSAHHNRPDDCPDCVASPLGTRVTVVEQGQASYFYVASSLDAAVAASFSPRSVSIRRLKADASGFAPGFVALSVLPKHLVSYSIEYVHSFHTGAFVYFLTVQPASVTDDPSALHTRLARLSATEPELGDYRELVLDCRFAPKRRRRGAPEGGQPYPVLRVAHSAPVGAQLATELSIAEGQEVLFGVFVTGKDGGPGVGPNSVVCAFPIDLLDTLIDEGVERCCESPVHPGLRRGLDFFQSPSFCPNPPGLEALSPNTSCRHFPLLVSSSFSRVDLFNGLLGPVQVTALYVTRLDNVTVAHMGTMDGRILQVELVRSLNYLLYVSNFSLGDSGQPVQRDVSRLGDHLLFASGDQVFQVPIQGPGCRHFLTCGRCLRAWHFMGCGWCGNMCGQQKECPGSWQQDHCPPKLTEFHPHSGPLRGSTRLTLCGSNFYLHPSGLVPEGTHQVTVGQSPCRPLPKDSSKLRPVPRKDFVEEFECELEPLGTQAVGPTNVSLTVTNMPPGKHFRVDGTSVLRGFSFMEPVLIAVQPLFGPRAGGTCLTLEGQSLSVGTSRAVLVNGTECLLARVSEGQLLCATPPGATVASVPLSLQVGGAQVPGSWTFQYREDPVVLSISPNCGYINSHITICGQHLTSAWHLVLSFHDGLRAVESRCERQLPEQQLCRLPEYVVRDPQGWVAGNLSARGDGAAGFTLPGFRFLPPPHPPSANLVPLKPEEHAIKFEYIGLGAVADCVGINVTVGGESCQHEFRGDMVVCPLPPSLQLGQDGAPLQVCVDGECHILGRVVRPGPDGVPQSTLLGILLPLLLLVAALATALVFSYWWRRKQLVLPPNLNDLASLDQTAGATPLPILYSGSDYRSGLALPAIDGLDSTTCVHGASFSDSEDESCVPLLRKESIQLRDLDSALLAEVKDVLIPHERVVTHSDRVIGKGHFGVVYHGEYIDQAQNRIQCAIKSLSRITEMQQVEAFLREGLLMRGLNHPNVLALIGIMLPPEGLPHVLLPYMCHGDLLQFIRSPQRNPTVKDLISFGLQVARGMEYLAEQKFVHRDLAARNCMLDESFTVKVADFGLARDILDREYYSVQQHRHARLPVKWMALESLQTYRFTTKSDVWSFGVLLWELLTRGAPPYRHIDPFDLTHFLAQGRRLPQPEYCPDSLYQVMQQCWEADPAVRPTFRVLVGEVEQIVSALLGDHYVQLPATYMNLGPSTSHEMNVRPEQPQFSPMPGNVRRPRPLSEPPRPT
T6 sequence (Q8IY84 whole entry): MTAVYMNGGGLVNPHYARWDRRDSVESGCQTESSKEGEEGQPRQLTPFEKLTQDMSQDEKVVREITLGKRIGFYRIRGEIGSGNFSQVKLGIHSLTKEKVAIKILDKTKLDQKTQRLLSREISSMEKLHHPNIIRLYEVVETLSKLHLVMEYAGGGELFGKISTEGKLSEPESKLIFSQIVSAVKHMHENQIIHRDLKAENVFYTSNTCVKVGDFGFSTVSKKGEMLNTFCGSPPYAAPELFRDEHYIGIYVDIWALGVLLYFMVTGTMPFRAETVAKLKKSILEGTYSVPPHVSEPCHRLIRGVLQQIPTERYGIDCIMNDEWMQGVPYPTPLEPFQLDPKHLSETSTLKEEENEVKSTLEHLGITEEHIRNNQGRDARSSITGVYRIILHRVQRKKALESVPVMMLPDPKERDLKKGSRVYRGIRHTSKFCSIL
T4 sequence (Q9BWU1 whole entry): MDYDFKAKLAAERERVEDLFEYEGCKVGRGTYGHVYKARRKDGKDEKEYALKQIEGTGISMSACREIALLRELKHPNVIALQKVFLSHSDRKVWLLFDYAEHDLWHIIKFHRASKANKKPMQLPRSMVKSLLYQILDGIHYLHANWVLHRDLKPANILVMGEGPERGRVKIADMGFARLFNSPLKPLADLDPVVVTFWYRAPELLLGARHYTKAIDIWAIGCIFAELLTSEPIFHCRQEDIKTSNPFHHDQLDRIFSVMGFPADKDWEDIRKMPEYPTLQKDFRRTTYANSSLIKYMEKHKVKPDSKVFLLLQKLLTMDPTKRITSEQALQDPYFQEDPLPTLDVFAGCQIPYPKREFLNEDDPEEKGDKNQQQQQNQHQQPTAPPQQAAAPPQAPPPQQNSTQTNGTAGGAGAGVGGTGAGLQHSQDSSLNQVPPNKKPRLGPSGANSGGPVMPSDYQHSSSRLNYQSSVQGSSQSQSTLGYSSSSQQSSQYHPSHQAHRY
T13 sequence (Q08881 whole entry): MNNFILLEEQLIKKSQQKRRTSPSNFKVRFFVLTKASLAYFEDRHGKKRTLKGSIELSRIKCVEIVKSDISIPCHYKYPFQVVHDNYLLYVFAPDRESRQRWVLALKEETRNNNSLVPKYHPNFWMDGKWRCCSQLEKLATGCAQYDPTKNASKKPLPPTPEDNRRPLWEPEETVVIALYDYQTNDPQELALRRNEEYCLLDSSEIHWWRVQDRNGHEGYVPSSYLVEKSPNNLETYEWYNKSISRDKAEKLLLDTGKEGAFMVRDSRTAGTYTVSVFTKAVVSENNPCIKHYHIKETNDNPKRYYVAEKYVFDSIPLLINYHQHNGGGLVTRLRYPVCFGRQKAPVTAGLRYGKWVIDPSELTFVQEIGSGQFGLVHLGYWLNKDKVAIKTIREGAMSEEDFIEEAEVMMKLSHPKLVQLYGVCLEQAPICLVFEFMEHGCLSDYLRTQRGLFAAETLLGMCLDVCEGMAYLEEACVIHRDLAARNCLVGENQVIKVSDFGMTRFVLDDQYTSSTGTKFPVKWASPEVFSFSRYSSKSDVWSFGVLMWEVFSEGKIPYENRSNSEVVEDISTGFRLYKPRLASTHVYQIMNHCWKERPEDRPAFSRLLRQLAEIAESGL
T2 sequence (Q13555 whole entry): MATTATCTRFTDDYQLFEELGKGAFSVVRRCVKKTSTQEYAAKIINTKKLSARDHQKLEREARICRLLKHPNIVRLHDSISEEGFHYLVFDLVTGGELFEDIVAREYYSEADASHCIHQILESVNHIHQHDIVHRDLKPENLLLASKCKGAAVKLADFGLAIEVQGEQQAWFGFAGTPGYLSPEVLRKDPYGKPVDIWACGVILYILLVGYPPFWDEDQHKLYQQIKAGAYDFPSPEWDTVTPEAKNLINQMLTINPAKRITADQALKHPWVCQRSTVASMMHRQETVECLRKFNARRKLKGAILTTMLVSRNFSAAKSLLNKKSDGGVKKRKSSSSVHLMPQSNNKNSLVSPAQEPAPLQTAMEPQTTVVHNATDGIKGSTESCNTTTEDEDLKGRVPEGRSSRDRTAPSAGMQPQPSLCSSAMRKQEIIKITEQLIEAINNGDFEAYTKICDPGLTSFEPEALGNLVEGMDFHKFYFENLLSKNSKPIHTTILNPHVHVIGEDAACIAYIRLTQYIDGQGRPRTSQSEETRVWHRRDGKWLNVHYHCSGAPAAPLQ

In the case of `CCc1ccc2c(c1)C1(NN=C(c3cccc4ccccc34)S1)C(=O)N2` (stereo not drawn) [OGM1, 5-ethyl-5′-naphthalen-1-ylspiro[1H-indole-3,2′-3H-1,3,4-thiadiazole]-2-one], the remaining binding at 10 µM on SGK3 worked out at 56%; on CAMK2G it was 85%; at AAK1, 100%; on CDK11, 100%; on PRKR, 59%; on NIM1, 96%. Further, the remaining binding at 10 µM was 100% at CSNK1D; 82% in [1]; 62% on PAK7; 100% at ULK3; 86% at MST1R; 100% on ITK. The remaining binding at 10 µM at PRKD3 is 100%. Further, the Antagonism at AT1 (10 uM) is reported as −0.7; at ADRB1 (10 uM) it was −9.6. Further, the Agonism at AT1 (12.5 uM) is listed as −0.4; at ADRB1 (12.5 uM), −1.3.
Turning to `CCc1ccc2c(c1)C1(NN=C(c3ccccc3)S1)C(=O)N2` (stereo not drawn) [OGM2], in the assay on NCI-H460, the Class entry is given as “Sensitive (Sensitive (LC50=2 to 10 μM))”. Besides, in the assay with NCI-H460 (72 hours), the “% Survival 2 μM OGM” value turned out to be 51.7% and the “% Survival 10 μM OGM” value is reported as 26.5%. For the same molecule, the CC50 in the assay on NCI-H460 (Homo sapiens, NCI-H460, 72 hours, read-out: LC50 (the source's name)) was in the range of 2 to 10 µM. Besides, in the assay on Panc02, the “coefficient of drug interaction (CDI), G2 phase fraction” value was found to be 0.689 and the “increase in the G2 phase fraction” value was found to be 120%. The clonogenicity entry in the assay on U87 was “reduces clonogenicity of U87 glioblastoma cells”.
